Reference: patent US5440041A, “Acetal or ketal substituted xanthine compounds” (Cell Therapeutics, Inc., priority 1994, dated 1995)

What was measured:
[1] = tested on: tumor necrosis factor (TNF); conditions: PTX recipients; cited from earlier work
[2] = tested on: certain cytokines; conditions: U.S. Pat. No. 4,965,271 and U.S. Pat. No. 5,096,906; cited from earlier work
[3] = tested on: polymorphonuclear leukocytes; conditions: in response to a stimulator of chemotaxis; U.S. Pat. No. 4,636,507; cited from earlier work
[4] = tested on: PAPH; assay: Inhibition of PAPH; format: biochemical; conditions: specific activation pathway not involving PI; substrates with 1,2-diunsaturated and 1-alkyl,2-unsaturated subspecies
Experimental: One in vitro assay measures inhibition of the relevant enzymes lysophosphatidic acid acyltransferase (LPAAT) and phosphatidic acid phosphoryl hydrolase (PAPH). The assay involves incubating of target cells with a primary stimulus (e.g., a variety of cytokines, growth factors, oncogene products, putative therapeutic agents, irradiation, viral infection, toxins, bacterial infection and the products thereof, and any stimulus which, if not counteracted, has a deleterious effect on the target cell) in the presence or absence of an inventive compound at varying dosage levels. […] It is important to note that the assay method permits discrimination between various forms of PA and DAG so that those relevant to the pathway affected by the (R) or (S) compounds of the invention can be measured directly. […] Thus, the relevant unsaturated (non-arachidonic) PA and DAG subspecies may be detected. […]

SMILES: CC(=O)CCCCn1c(=O)c2c(ncn2C)n(C)c1=O [PTX, 1-(5-oxohexyl)-3,7-dimethylxanthine]
- TNF levels in normal volunteers [1]: higher among PTX recipients
- effect on activity of certain cytokines to affect chemotaxis [2]: inhibit activity of certain cytokines to affect chemotaxis
- effect on chemotaxis in polymorphonuclear leukocytes [3]: stimulate chemotaxis
- effect on PAPH [4]: blocks PAPH in a specific activation pathway
